Residues, ends and D or L forms follow the SMILES beside them.
Assay: White cell and T cell subset counts (CD4, CD8, NK) in HIV infected patient given HEP1
Format: in vivo, human
Details: patient three, oral HEP1 10 mg daily day 2-22
Protocol: The objective of this study was to determine in an HIV infected patient if the induction of immunological tolerance to HEP1 could reduce immune activation and HIV infection. The design of the first clinical experiment was to orally administer HEP1 to the patient in daily 10 mg doses (the lower end of the preferred dose range). This was then followed approximately three months later with a subcutaneous administration of HEP1 at a higher dose of 140 mg. To assess the therapeutic benefit of HEP1, the following disease progression markers were measured by taking blood samples before, during and after each trial and determining: HIV levels by a p24 antigen assay, HIV infectivity by a cellular TCID assay and immune activation by quantitating levels of various lymphocytes.
T cell subsets were measured by adding a whole blood sample to a 4.5 ml tube containing EDTA and staining with monoclonal antibodies to CD3, CD4 and CD8. The percentage of T cells in Peripheral Blood Lymphocytes were determined by flow-cytometric procedures. The numbers of CD4 and CD8 T cells were determined by obtaining total and differential white-cell counts and multiplying by the appropriate factor obtained on flow cytometry.
The following markers of HIV disease progression were assayed: p24Ag (the concentration of HIV p24 protein in picogram/ml in the blood), TCID (the infectivity of the HIV in the cells of blood sample measured by an in vitro cell culture assay in which a serial dilution of the sample was mixed with activated uninfected PBMC and the level of HIV infection determined by p24Ag assay), total white count (immune activation measured by the number of white cells per mm^3), CD4 (the number of CD4 positive cells per mm^3), CD8 (the number of CD8 positive cells per mm^3), NK (the number of Natural Killer cells per mm^3), Lymphocytes (the number of cells per mm^3), Monocytes (the number of cells per mm^3), and Granulocytes (the number of cells per mm^3). Normalised data was calculated by dividing each data point by the value of its data series on day 1 of the trail and multiplying by 100.

## CC(C)[C@H](NC(=O)[C@@H](NC(=O)[C@H](CCC(=O)O)NC(=O)[C@H](CCCNC(=N)N)NC(=O)[C@H](CCCNC(=N)N)NC(=O)[C@H](CCCCN)NC(=O)[C@H](CCCCN)NC(=O)[C@H](CCC(=O)O)NC(=O)[C@@H](N)[C@@H](C)O)[C@@H](C)O)C(=O)N[C@@H](CCC(=O)O)C(=O)N[C@@H](CCCNC(=N)N)C(=O)N[C@@H](CCC(=O)O)C(=O)N[C@@H](CCCCN)C(=O)N[C@@H](CCC(=O)O)C(=O)O [HEP1, NH2 ThrGluLysLysArgArgGluThrValGluArgGluLysGluCOOH] (H-TEKKRRETVEREKE-OH)
Day 1, before first dose
  % Granulocytes: 76.1%
  % Granulocytes, normalised data (day 1 = 100): 100
  % Lymphocytes: 17.8%
  % Lymphocytes, normalised data (day 1 = 100): 100
  % Monocytes: 6.1%
  % Monocytes, normalised data (day 1 = 100): 100
  CD4: 80 cells per mm^3
  CD4, normalised data (day 1 = 100): 100
  CD8: 900 cells per mm^3
  CD8, normalised data (day 1 = 100): 100
  Granulocytes: 6230 cells per mm^3
  Lymphocytes: 1480 cells per mm^3
  Lymphocytes, normalised data (day 1 = 100): 100
  Monocytes: 570 cells per mm^3
  Monocytes, normalised data (day 1 = 100): 100
  NK: 30 cells per mm^3
  NK, normalised data (day 1 = 100): 100
  White count: 8200 cells per mm^3
  White count, normalised data (day 1 = 100): 100
Day 7, during treatment
  % Granulocytes: 81.4%
  % Granulocytes, normalised data (day 1 = 100): 107
  % Lymphocytes: 15.5%
  % Lymphocytes, normalised data (day 1 = 100): 87
  % Monocytes: 3.1%
  % Monocytes, normalised data (day 1 = 100): 51
  CD4: 80 cells per mm^3
  CD4, normalised data (day 1 = 100): 100
  CD8: 850 cells per mm^3
  CD8, normalised data (day 1 = 100): 94
  Granulocytes: 6560 cells per mm^3
  Granulocytes, normalised data (day 1 = 100): 105
  Lymphocytes: 1150 cells per mm^3
  Lymphocytes, normalised data (day 1 = 100): 78
  Monocytes: 490 cells per mm^3
  Monocytes, normalised data (day 1 = 100): 86
  NK: 30 cells per mm^3
  NK, normalised data (day 1 = 100): 100
  White count: 8200 cells per mm^3
  White count, normalised data (day 1 = 100): 100
Day 14, during treatment
  % Granulocytes: 76.8%
  % Granulocytes, normalised data (day 1 = 100): 101
  % Lymphocytes: 16.8%
  % Lymphocytes, normalised data (day 1 = 100): 94
  % Monocytes: 6.4%
  % Monocytes, normalised data (day 1 = 100): 105
  CD4: 90 cells per mm^3
  CD4, normalised data (day 1 = 100): 113
  CD8: 900 cells per mm^3
  CD8, normalised data (day 1 = 100): 100
  Granulocytes: 5620 cells per mm^3
  Granulocytes, normalised data (day 1 = 100): 90
  Lymphocytes: 1460 cells per mm^3
  Lymphocytes, normalised data (day 1 = 100): 99
  Monocytes: 620 cells per mm^3
  Monocytes, normalised data (day 1 = 100): 109
  NK: 40 cells per mm^3
  NK, normalised data (day 1 = 100): 133
  White count: 7700 cells per mm^3
  White count, normalised data (day 1 = 100): 94
Day 21, during treatment
  % Granulocytes: 76.2%
  % Granulocytes, normalised data (day 1 = 100): 100
  % Lymphocytes: 18.6%
  % Lymphocytes, normalised data (day 1 = 100): 104
  % Monocytes: 5.2%
  % Monocytes, normalised data (day 1 = 100): 85
  CD4: 80 cells per mm^3
  CD4, normalised data (day 1 = 100): 100
  CD8: 910 cells per mm^3
  CD8, normalised data (day 1 = 100): 101
  Granulocytes: 5100 cells per mm^3
  Granulocytes, normalised data (day 1 = 100): 82
  Lymphocytes: 1160 cells per mm^3
  Lymphocytes, normalised data (day 1 = 100): 78
  Monocytes: 540 cells per mm^3
  Monocytes, normalised data (day 1 = 100): 95
  NK: 40 cells per mm^3
  NK, normalised data (day 1 = 100): 133
  White count: 6800 cells per mm^3
  White count, normalised data (day 1 = 100): 83
Day 28, after treatment
  % Granulocytes: 74.5%
  % Granulocytes, normalised data (day 1 = 100): 98
  % Lymphocytes: 20%
  % Lymphocytes, normalised data (day 1 = 100): 112
  % Monocytes: 5.5%
  % Monocytes, normalised data (day 1 = 100): 90
  CD4: 80 cells per mm^3
  CD4, normalised data (day 1 = 100): 100
  CD8: 730 cells per mm^3
  CD8, normalised data (day 1 = 100): 81
  Granulocytes: 4020 cells per mm^3
  Granulocytes, normalised data (day 1 = 100): 65
  Lymphocytes: 1050 cells per mm^3
  Lymphocytes, normalised data (day 1 = 100): 71
  Monocytes: 440 cells per mm^3
  Monocytes, normalised data (day 1 = 100): 77
  NK: 20 cells per mm^3
  NK, normalised data (day 1 = 100): 67
  White count: 5500 cells per mm^3
  White count, normalised data (day 1 = 100): 67
day-69, before treatment
  % Granulocytes: 80.4%
  % Granulocytes, normalised data (day 1 = 100): 106
  % Lymphocytes: 15.4%
  % Lymphocytes, normalised data (day 1 = 100): 87
  % Monocytes: 4.2%
  % Monocytes, normalised data (day 1 = 100): 96
  CD4: 90 cells per mm^3
  CD4, normalised data (day 1 = 100): 113
  CD8: 850 cells per mm^3
  CD8, normalised data (day 1 = 100): 94
  Granulocytes: 6000 cells per mm^3
  Granulocytes, normalised data (day 1 = 100): 96
  Lymphocytes: 1260 cells per mm^3
  Lymphocytes, normalised data (day 1 = 100): 85
  Monocytes: 630 cells per mm^3
  Monocytes, normalised data (day 1 = 100): 111
  NK: 20 cells per mm^3

— patent US5773573A, “HIV peptides” (priority 1994, dated 1998)
